# Experimental data taken from article PMC5894102 (Journal of medicinal chemistry, 2017).
# Key:
# in vitro = conditions: human, A673 cells
# [1] = cited from earlier work
# CYP = conditions: cited from earlier work
# [2] = target: human lactate dehydrogenase 5 (LDHA) (Homo sapiens, UniProt P00338); assay: LDHA biochemical assay
# LDHA = LDHA (Homo sapiens, UniProt P00338); format: cell-based
# [3] = Mouse pharmacokinetic study; format: in vivo, CD1 mice; conditions: male, CD1, mouse, plasma, iv, 2 mg/kg
# MiaPaCa-2 cells = conditions: 120 hours
structure (smiles),measurement,setting,value
COc1ncc(-c2ccc3c(Nc4cc(Oc5cc(F)cc(F)c5)cc(C(=O)O)c4)c(S(=O)(=O)NC4CC4)cnc3c2)c(OC)n1 [Analog 2],IC50 at 48 h,in vitro,> 57 µM
O=C(O)c1csc(-n2nc(-c3ccccc3)cc2C(F)(F)F)n1 [Analog 5],stability in human plasma,[1],stable in human plasma
same,CYP inhibition,CYP,no appreciable CYP inhibition
O=C(O)c1csc(-n2nc(-c3ccccc3)cc2O)n1 [Analog 11],improvement in potency on replacing CF3 by OH,[2],> 100 fold
O=C(O)c1csc(-n2nc(-c3ccc(F)cc3)cc2O)n1 [Analog 16],IC50,[2],0.15 µM
NS(=O)(=O)c1ccc(Cc2cn(-c3nc(C(=O)O)cs3)nc2-c2ccc(F)c(F)c2)cc1 [Analog 42],IC50 at 48 h,in vitro,> 57 µM
NS(=O)(=O)c1ccc(Cc2cn(-c3nc(C(=O)O)cs3)nc2-c2cccc(-c3ccccc3)c2)cc1 [Analog 44],CETSA: Cellular LDHA stabilization Max stab. (norm'd),"LDHA; A673 cells, Western blot band intensity scaled to maximum response of 44",100.0
NS(=O)(=O)c1ccc(Cc2c(-c3cccc(-c4ccccc4)c3)nn(-c3nc(C(=O)O)cs3)c2C2CC2)cc1 [Analog 61],half-life,[3],51 min
NS(=O)(=O)c1ccc(Cc2c(-c3ccccc3)nn(-c3nc(C(=O)O)cs3)c2CC2CC2)cc1 [Analog 62],CETSA: Cellular LDHA stabilization AUC (norm'd),LDHA,100.00
NS(=O)(=O)c1ccc(Cc2c(-c3cccc(-c4ccccc4)c3)nn(-c3nc(C(=O)O)cs3)c2CC2CC2)cc1 [Analog 63],concentration with nearly complete arrest of cell growth,MiaPaCa-2 cells,20 µM
same,lowest concentration with effects on cellular proliferation,MiaPaCa-2 cells; dose-response,250 nM
